Reference: PubChem BioAssay AID314 (DTP/NCI, 2004)
Several values for one entry are separate records, joined by “and”; a condition that tells them apart may be missing. Equal entries are not always repeated. Toxic doses and inconclusive results are not listed. The calls were made as follows: active = survival T/C of 150% or more; inactive = T/C below 125% in these data.

Tested on: DBA/2 mice, P1534 leukemia ip, survival T/C
Test: NCI In Vivo Anticancer Drug Screen. Data for tumor model P1534 Leukemia (intraperitoneal) in DBA/2 mice
Conditions: endpoint: mean survival time, schedule: Q01DX010 (ip), vehicle: saline, higher = longer survival
Description: The antitumor activity of compounds was measured in mice bearing transplantable tumors. Survival or tumor size were measured and the results are expressed as the measurement made in the treated group (T) divided by the measurement made in the vehicle treated control group (C). The tumor model used in this assay is P1534 Leukemia (intraperitoneal) in DBA/2 mice

Measured: T/C

CN(C)c1nc(N(C)C)nc(N(C)C)n1
inactive: dose: 9.4 mg/kg/injection 103 % of control and 111 % of control | dose: 150.0 mg/kg/injection 103 % of control and 107 % of control

O=c1cnn(C2OC(CO)C(O)C2O)c(=O)[nH]1 (configuration not stated)
inactive: dose: 50.0 mg/kg/injection 103 % of control and 117 % of control | dose: 100.0 mg/kg/injection 96 % of control and 113 % of control | dose: 200.0 mg/kg/injection 91 % of control and 108 % of control

CC(CCC(C)OS(C)(=O)=O)OS(C)(=O)=O (configuration not stated)
inactive: dose: 2.0 mg/kg/injection 96 % of control and 103 % of control | dose: 4.0 mg/kg/injection 100 % of control and 107 % of control | dose: 8.0 mg/kg/injection 96 % of control and 100 % of control

CCN(CC)CCNc1ccc(C)c2sc3ccccc3c(=O)c12
inactive: dose: 10.0 mg/kg/injection 108 % of control | dose: 20.0 mg/kg/injection 108 % of control | dose: 40.0 mg/kg/injection 112 % of control | dose: 80.0 mg/kg/injection 100 % of control

Nc1nc(SCc2ccccc2)c2[nH]cnc2n1
inactive: dose: 8.0 mg/kg/injection 92 % of control and 100 % of control | dose: 16.0 mg/kg/injection 100 % of control | dose: 31.3 mg/kg/injection 88 % of control | dose: 32.0 mg/kg/injection 100 % of control and 103 % of control

COc1cc2c(c(OC)c1OC)-c1ccc(OC)c(=O)cc1[C@@H](NC(C)=O)CC2
inactive: dose: 0.01 mg/kg/injection 107 % of control | dose: 0.02 mg/kg/injection 110 % of control | dose: 0.04 mg/kg/injection 114 % of control | dose: 0.08 mg/kg/injection 121 % of control

C/C=C1\CN(C=O)C2CC3c4ccccc4NC3C(=O)CC1C2C(=O)OC (configuration not stated)
inactive: dose: 3.13 mg/kg/injection 100 % of control | dose: 6.25 mg/kg/injection 100 % of control | dose: 12.5 mg/kg/injection 100 % of control | dose: 25.0 mg/kg/injection 100 % of control

Cc1cc(N(CCCl)CCCl)ccc1N=Nc1ccccc1C(=O)O
inactive: dose: 5.0 mg/kg/injection 114 % of control and 123 % of control | dose: 10.0 mg/kg/injection 118 % of control | dose: 20.0 mg/kg/injection 107 % of control and 111 % of control
